Source: the kinase profiling compilation of Christmann-Franck et al. (2016)

Key:
Details in all cases: compound 10.0 µM
BMPR2 (human) = BMPR2 (human) (UniProt Q13873)
BRSK1 (human) = BRSK1 (human) (UniProt Q8TDC3)
CDK2 (human) = CDK2 (human) (UniProt P24941)
CIT (human) = CIT (human) (UniProt O14578)
CSNK1A1L (human) = CSNK1A1L (human) (UniProt Q8N752)
EPHA6 (human) = EPHA6 (human) (UniProt Q9UF33)
EPHB3 (human) = EPHB3 (human) (UniProt P54753)
FGFR3 (human) = FGFR3 (human) (UniProt P22607)
FLT1 (human) = FLT1 (human) (UniProt P17948)
[1] = test system: FLT3 (human), P36888 [D835H]
HIPK3 (human) = HIPK3 (human) (UniProt Q9H422)
IRAK4 (human) = IRAK4 (human) (UniProt Q9NWZ3)
MAPK10 (human) = MAPK10 (human) (UniProt P53779)
MAPKAPK2 (human) = MAPKAPK2 (human) (UniProt P49137)
MATK (human) = MATK (human) (UniProt P42679)
MYLK (human) = MYLK (human) (UniProt Q15746)
NEK3 (human) = NEK3 (human) (UniProt P51956)
PDPK1 (human) = PDPK1 (human) (UniProt O15530)
PHKG1 (human) = PHKG1 (human) (UniProt Q16816)
PI4KB (human) = PI4KB (human) (UniProt Q9UBF8)
PIK3C2B (human) = PIK3C2B (human) (UniProt O00750)
Chain of PIK3C2B (human) (O00750 whole entry, looked up): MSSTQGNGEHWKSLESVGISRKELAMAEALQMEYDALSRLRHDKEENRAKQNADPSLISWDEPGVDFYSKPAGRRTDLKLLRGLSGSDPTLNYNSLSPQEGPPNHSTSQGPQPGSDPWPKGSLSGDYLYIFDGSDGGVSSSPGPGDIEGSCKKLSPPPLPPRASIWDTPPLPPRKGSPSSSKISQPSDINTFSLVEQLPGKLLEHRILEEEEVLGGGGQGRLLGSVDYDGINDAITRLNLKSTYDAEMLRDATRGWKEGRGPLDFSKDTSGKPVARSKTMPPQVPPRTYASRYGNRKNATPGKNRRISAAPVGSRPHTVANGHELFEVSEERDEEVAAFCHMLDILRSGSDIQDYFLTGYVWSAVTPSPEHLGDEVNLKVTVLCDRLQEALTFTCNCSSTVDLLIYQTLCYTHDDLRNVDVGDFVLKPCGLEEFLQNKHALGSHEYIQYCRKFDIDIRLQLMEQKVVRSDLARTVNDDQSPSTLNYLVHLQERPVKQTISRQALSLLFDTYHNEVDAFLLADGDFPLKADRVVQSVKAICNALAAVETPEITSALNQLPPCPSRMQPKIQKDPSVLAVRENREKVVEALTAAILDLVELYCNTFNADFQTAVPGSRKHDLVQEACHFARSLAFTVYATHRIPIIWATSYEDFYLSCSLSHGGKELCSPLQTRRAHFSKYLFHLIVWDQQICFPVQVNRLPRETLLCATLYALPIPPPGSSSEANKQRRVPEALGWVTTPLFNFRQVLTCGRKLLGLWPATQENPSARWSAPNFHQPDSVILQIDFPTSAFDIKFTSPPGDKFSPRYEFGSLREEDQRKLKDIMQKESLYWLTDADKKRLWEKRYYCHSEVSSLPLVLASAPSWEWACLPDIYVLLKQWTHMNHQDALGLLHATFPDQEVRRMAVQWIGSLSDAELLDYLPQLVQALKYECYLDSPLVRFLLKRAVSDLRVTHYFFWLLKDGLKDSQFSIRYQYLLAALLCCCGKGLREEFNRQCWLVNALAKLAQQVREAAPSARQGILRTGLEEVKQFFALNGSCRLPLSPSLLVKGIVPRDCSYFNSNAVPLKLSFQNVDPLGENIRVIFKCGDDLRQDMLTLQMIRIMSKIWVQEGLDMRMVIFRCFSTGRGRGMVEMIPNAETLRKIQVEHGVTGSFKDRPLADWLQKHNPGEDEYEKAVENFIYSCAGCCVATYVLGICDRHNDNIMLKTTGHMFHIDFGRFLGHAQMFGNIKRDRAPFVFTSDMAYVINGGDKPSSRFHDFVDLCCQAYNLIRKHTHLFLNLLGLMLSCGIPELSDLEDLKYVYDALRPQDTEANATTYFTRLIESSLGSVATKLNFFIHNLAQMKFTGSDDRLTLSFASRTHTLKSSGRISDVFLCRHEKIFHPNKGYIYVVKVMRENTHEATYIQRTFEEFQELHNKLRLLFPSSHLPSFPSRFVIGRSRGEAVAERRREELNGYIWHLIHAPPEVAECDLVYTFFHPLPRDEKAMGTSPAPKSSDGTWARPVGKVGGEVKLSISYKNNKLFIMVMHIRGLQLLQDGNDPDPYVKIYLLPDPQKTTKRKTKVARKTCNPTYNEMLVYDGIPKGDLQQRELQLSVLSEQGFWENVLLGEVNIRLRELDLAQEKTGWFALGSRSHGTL

PIK3CB (human) = PIK3CB (human) (UniProt P42338)
Chain of PIK3CB (human) (P42338 whole entry, looked up): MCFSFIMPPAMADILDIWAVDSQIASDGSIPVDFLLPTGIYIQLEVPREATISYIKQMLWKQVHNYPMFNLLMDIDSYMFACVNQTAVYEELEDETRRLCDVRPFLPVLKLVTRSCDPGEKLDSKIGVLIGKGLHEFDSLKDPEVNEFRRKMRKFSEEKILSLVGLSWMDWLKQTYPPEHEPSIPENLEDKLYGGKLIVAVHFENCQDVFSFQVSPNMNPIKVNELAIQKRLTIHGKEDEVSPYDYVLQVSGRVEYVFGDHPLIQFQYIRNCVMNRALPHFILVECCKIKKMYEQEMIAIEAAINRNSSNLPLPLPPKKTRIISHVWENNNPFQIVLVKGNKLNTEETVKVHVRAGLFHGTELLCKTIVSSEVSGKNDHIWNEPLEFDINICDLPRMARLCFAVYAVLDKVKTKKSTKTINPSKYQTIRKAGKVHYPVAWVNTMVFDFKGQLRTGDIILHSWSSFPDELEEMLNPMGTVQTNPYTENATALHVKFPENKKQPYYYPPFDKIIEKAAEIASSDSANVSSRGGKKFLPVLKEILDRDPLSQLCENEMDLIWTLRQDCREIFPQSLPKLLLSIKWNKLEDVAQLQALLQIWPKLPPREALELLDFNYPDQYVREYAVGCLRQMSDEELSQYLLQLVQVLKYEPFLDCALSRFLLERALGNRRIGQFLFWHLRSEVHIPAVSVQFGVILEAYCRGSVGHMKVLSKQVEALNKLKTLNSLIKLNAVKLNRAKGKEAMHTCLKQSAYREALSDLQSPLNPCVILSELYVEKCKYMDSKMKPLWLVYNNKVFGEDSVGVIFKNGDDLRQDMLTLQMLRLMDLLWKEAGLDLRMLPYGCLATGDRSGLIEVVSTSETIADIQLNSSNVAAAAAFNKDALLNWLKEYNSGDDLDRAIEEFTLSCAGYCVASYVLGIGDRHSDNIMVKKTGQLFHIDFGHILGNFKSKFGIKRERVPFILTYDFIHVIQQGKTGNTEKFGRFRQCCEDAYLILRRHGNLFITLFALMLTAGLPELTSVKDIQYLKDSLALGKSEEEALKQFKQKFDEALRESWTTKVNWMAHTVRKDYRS

PIP5K1C (human) = PIP5K1C (human) (UniProt O60331)
PLK3 (human) = PLK3 (human) (UniProt Q9H4B4)
PRKAA1 (human) = PRKAA1 (human) (UniProt Q13131)
PRKACA (human) = PRKACA (human) (UniProt P17612)
PRKCQ (human) = PRKCQ (human) (UniProt Q04759)
PRPF4B (human) = PRPF4B (human) (UniProt Q13523)
RPS6KA1 KD1 (human) = RPS6KA1 KD1 (human) (UniProt Q15418)
Chain of RPS6KA1 KD1 (human) (Q15418 whole entry, looked up): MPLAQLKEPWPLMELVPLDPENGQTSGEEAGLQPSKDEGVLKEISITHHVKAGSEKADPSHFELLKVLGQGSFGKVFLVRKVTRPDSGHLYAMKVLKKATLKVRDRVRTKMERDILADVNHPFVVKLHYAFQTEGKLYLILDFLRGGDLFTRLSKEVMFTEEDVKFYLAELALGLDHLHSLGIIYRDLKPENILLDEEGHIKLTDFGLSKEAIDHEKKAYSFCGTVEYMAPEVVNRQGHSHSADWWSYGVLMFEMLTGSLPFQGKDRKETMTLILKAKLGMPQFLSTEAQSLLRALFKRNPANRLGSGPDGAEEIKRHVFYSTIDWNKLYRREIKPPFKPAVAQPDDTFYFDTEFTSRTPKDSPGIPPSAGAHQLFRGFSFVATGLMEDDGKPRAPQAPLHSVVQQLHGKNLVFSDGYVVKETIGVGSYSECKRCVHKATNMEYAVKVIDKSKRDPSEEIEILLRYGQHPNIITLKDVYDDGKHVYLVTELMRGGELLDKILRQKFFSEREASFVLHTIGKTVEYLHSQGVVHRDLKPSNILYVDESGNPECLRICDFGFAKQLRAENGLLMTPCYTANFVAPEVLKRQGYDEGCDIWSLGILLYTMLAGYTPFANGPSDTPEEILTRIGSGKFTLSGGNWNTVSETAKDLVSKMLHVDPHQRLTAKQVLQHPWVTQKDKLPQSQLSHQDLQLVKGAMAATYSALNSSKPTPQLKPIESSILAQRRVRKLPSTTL

RPS6KA6 KD1 (human) = RPS6KA6 KD1 (human) (UniProt Q9UK32)
SIK2 (human) = SIK2 (human) (UniProt Q9H0K1)
SIK3 (human) = SIK3 (human) (UniProt Q9Y2K2)
STK17A (human) = STK17A (human) (UniProt Q9UEE5)
STK17B (human) = STK17B (human) (UniProt O94768)
STK25 (human) = STK25 (human) (UniProt O00506)
STK35 (human) = STK35 (human) (UniProt Q8TDR2)
STK38 (human) = STK38 (human) (UniProt Q15208)
TAOK1 (human) = TAOK1 (human) (UniProt Q7L7X3)
TAOK3 (human) = TAOK3 (human) (UniProt Q9H2K8)
ULK3 (human) = ULK3 (human) (UniProt Q6PHR2)
YES1 (human) = YES1 (human) (UniProt P07947)

Chain of EPHA6 (human) (Q9UF33 whole entry, looked up): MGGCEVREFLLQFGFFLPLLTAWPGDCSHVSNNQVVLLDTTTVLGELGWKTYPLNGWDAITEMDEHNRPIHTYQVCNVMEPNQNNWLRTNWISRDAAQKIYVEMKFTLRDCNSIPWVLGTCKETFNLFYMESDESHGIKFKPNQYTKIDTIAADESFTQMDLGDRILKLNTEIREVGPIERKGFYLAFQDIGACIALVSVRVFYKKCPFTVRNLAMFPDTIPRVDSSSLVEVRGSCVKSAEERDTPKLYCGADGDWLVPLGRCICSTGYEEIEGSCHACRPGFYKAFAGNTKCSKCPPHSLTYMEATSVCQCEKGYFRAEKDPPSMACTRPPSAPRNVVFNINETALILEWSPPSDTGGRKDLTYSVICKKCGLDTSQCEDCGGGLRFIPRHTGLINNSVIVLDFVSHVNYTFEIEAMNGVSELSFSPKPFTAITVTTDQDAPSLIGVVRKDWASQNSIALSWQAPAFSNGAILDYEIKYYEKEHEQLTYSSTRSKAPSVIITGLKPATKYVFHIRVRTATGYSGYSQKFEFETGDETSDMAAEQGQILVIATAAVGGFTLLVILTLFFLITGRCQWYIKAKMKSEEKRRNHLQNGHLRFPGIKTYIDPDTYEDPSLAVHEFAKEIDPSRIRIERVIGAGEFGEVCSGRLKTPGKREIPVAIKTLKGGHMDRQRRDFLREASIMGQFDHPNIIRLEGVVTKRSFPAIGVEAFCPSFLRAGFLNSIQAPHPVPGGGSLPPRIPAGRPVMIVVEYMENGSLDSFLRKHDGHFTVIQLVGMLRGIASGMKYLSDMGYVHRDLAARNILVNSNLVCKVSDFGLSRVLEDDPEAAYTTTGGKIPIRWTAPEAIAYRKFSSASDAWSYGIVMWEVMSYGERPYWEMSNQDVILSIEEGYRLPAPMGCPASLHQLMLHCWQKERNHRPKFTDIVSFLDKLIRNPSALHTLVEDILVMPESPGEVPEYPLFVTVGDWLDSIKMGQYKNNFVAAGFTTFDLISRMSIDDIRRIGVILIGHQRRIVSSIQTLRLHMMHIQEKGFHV
Chain of CSNK1A1L (human) (Q8N752 whole entry, looked up): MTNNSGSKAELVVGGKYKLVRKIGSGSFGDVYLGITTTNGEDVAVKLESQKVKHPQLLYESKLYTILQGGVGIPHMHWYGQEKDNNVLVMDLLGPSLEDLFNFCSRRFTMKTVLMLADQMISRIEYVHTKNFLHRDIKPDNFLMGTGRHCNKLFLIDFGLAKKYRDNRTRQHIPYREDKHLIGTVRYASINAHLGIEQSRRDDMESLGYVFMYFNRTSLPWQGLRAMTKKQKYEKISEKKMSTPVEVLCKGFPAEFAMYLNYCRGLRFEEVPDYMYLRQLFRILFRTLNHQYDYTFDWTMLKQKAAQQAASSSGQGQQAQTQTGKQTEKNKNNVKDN

Compound: CNC(=O)c1cc(Oc2ccc(NC(=O)Nc3ccc(Cl)c(C(F)(F)F)c3)cc2)ccn1
- per cent of control (BMPR2 (human)): 100%
- per cent of control (BRSK1 (human)): 100%
- per cent of control (CDK2 (human)): 15%
- per cent of control (CIT (human)): 20%
- per cent of control (CSNK1A1L (human)): 100%
- per cent of control (EPHA6 (human)): 1.6%
- per cent of control (EPHB3 (human)): 53%
- per cent of control (FGFR3 (human)): 20%
- per cent of control (FLT1 (human)): 0.7%
- per cent of control [1]: 0.45%
- per cent of control (HIPK3 (human)): 1.2%
- per cent of control (IRAK4 (human)): 100%
- per cent of control (MAPK10 (human)): 90%
- per cent of control (MAPKAPK2 (human)): 91%
- per cent of control (MATK (human)): 64%
- per cent of control (MYLK (human)): 100%
- per cent of control (NEK3 (human)): 100%
- per cent of control (PDPK1 (human)): 94%
- per cent of control (PHKG1 (human)): 73%
- per cent of control (PI4KB (human)): 100%
- per cent of control (PIK3C2B (human)): 100%
- per cent of control (PIK3CB (human)): 100%
- per cent of control (PIP5K1C (human)): 79%
- per cent of control (PLK3 (human)): 100%
- per cent of control (PRKAA1 (human)): 32%
- per cent of control (PRKACA (human)): 100%
- per cent of control (PRKCQ (human)): 76%
- per cent of control (PRPF4B (human)): 94%
- per cent of control (RPS6KA1 KD1 (human)): 84%
- per cent of control (RPS6KA6 KD1 (human)): 100%
- per cent of control (SIK2 (human)): 74%
- per cent of control (SIK3 (human)): 100%
- per cent of control (STK17A (human)): 58%
- per cent of control (STK17B (human)): 66%
- per cent of control (STK25 (human)): 100%
- per cent of control (STK35 (human)): 7.8%
- per cent of control (STK38 (human)): 100%
- per cent of control (TAOK1 (human)): 12%
- per cent of control (TAOK3 (human)): 0.65%
- per cent of control (ULK3 (human)): 100%
- per cent of control (YES1 (human)): 41%

Compound: CNC(=O)c1cc(Oc2ccc(NC(=O)Nc3ccc(Cl)c(C(F)(F)F)c3)cc2)cc[n+]1[O-]
- per cent of control (BMPR2 (human)): 98%
- per cent of control (BRSK1 (human)): 76%
- per cent of control (CDK2 (human)): 1.8%
- per cent of control (CIT (human)): 27%
- per cent of control (CSNK1A1L (human)): 100%
- per cent of control (EPHA6 (human)): 6.6%
- per cent of control (EPHB3 (human)): 100%
- per cent of control (FGFR3 (human)): 32%
- per cent of control (FLT1 (human)): 0.65%
- per cent of control [1]: 0.7%
- per cent of control (HIPK3 (human)): 5.1%
- per cent of control (IRAK4 (human)): 100%
- per cent of control (MAPK10 (human)): 4.4%
- per cent of control (MAPKAPK2 (human)): 100%
- per cent of control (MATK (human)): 62%
- per cent of control (MYLK (human)): 100%
- per cent of control (NEK3 (human)): 100%
- per cent of control (PDPK1 (human)): 94%
- per cent of control (PHKG1 (human)): 77%
- per cent of control (PI4KB (human)): 100%
- per cent of control (PIK3C2B (human)): 100%
- per cent of control (PIK3CB (human)): 93%
- per cent of control (PIP5K1C (human)): 66%
- per cent of control (PLK3 (human)): 100%
- per cent of control (PRKAA1 (human)): 36%
- per cent of control (PRKACA (human)): 100%
- per cent of control (PRKCQ (human)): 80%
- per cent of control (PRPF4B (human)): 99%
- per cent of control (RPS6KA1 KD1 (human)): 91%
- per cent of control (RPS6KA6 KD1 (human)): 97%
- per cent of control (SIK2 (human)): 66%
- per cent of control (SIK3 (human)): 100%
- per cent of control (STK17A (human)): 66%
- per cent of control (STK17B (human)): 62%
- per cent of control (STK25 (human)): 32%
- per cent of control (STK35 (human)): 40%
- per cent of control (STK38 (human)): 100%
- per cent of control (TAOK1 (human)): 11%
- per cent of control (TAOK3 (human)): 0.4%
- per cent of control (ULK3 (human)): 82%
- per cent of control (YES1 (human)): 68%
